Measured values published in patent US20240208992A1, “MACROCYCLES AS CFTR MODULATORS” (Idorsia Pharmaceuticals Ltd, priority 2021, published 2024).

Biological target: human F508del-CFTR (Homo sapiens, UniProt P13569, DEL508-508)
Experiment: F508del-CFTR cell surface expression (corrector activity), DiscoveRx ß-galactosidase complementation chemiluminescence assay in recombinant U2OS cell line;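 also: U2OS cells co-expressing ProLink-tagged F508del-CFTR and a membrane-anchored enzyme acceptor, where more surface CFTR restores β-galactosidase activity measured by chemiluminescence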
Conditions: U2OS cell line, 16h compound incubation; for EC50: EC50, F508del-CFTR cell surface expression, geomean values; for Emax: U2OS, in relation to the Emax of the corrector lumacaftor (=100%), arithmetic mean values

Sequence of human F508del-CFTR (P13569 with tags, fused parts or gaps DEL508-508): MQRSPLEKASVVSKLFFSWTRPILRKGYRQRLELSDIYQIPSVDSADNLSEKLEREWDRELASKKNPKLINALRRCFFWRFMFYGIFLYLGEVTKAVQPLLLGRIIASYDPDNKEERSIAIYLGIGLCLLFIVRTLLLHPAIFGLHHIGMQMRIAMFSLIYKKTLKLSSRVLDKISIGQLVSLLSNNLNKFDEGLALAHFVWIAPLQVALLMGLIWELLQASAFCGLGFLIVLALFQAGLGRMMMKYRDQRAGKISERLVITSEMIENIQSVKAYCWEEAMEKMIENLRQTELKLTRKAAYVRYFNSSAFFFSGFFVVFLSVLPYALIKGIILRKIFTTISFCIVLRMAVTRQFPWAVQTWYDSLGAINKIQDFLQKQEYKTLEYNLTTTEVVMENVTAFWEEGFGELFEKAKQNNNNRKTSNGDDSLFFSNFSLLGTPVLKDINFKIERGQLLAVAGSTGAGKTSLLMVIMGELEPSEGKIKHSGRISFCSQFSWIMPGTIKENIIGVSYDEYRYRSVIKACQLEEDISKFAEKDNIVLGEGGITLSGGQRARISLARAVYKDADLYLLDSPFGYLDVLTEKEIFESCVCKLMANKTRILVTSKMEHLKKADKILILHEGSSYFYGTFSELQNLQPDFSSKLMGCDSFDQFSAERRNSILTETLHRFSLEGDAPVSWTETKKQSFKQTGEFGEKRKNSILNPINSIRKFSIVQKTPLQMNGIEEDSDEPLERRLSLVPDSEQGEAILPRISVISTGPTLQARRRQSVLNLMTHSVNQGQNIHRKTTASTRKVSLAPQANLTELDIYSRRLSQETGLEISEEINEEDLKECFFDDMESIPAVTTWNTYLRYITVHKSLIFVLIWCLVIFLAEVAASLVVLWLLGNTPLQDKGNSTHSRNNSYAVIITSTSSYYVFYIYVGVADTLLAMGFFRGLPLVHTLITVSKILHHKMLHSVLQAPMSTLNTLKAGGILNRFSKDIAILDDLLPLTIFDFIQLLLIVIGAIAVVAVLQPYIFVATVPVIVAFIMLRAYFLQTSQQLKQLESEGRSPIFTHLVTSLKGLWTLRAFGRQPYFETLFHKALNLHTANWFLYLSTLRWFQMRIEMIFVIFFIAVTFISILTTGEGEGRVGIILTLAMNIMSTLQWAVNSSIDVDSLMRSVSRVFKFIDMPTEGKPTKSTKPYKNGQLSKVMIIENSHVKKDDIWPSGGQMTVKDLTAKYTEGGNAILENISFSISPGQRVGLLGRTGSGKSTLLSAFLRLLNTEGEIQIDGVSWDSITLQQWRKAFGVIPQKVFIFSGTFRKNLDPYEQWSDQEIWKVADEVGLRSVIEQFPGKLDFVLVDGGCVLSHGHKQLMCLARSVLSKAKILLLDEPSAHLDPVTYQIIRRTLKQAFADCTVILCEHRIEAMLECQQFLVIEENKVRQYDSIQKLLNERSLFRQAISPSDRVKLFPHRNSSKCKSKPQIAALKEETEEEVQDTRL

Row | SMILES | EC50 | Emax
1 | COc1cccc2c1C(=O)N[C@H](C(=O)NCCc1ccc(-n3cccn3)cc1)CC(=O)N(C)[C@@H](CC(C)C)C(=O)N(CCC1CCCCC1)CC(=O)N[C@H](Cc1ccccc1)CO2 [Example 217, (3R,9S,13S)-N-(4-(1H-pyrazol-1-yl)phenethyl)-3-benzyl-7-(2-cyclohexylethyl)-9-isobutyl-16-methoxy-10-methyl-5,8,11,15-tetraoxo-2,3,4,5,6,7,8,9,10,11,12,13,14,15-tetradecahydrobenzo[p][1]oxa[4,7,10,14]tetraazacycloheptadecine-13-carboxamide] | 202 nM | 135%
2 | COc1cc(CCNC(=O)[C@@H]2CC(=O)N(C)[C@@H](CC(C)C)C(=O)N(CCC3CCCCC3)CC(=O)N[C@H](Cc3ccccc3)COc3cccc(OC)c3C(=O)N2)ccc1N [Example 218, (3R,9S,13S)-N-(4-amino-3-methoxyphenethyl)-3-benzyl-7-(2-cyclohexylethyl)-9-isobutyl-16-methoxy-10-methyl-5,8,11,15-tetraoxo-2,3,4,5,6,7,8,9,10,11,12,13,14,15-tetradecahydrobenzo[p][1]oxa[4,7,10,14]tetraazacycloheptadecine-13-carboxamide] | 353 nM | 143%
3 | COc1cccc(CCNC(=O)[C@@H]2CC(=O)N(C)[C@@H](CC(C)C)C(=O)N(CCC3CCCCC3)CC(=O)N[C@H](Cc3ccccc3)COc3cccc(OC)c3C(=O)N2)n1 [Example 220, (3R,9S,13S)-3-benzyl-7-(2-cyclohexylethyl)-9-isobutyl-16-methoxy-N-(2-(6-methoxypyridin-2-yl)ethyl)-10-methyl-5,8,11,15-tetraoxo-2,3,4,5,6,7,8,9,10,11,12,13,14,15-tetradecahydrobenzo[p][1]oxa[4,7,10,14]tetraazacycloheptadecine-13-carboxamide] | 258 nM | 103%
4 | CC(C)C[C@H]1C(=O)N2CCOC[C@@H]2C(=O)N[C@H](Cc2ccccc2)COc2cnc3ccccc3c2C(=O)N[C@H](C(=O)NCCc2cc(C(F)(F)F)no2)CC(=O)N1C [Example 221, (9S,13S,19aR,22R)-22-benzyl-13-isobutyl-12-methyl-7,11,14,20-tetraoxo-N-(2-(3-(trifluoromethyl)isoxazol-5-yl)ethyl)-7,8,9,10,11,12,13,14,16,17,19,19a,20,21,22,23-hexadecahydro-[1,4]oxazino[3′,4′:6,7][1]oxa[4,7,10,14]tetraazacycloheptadecino[17,16-c]quinoline-9-carboxamide] | 833 nM | 229%
5 | COc1cccc(CCNC(=O)[C@@H]2CC(=O)N(C)[C@@H](CC(C)C)C(=O)N3CCOC[C@@H]3C(=O)N[C@H](Cc3ccccc3)COc3ccc4ccccc4c3C(=O)N2)c1 [Example 222, (4aR,7R,18S,22S)-7-Benzyl-22-isobutyl-N-(3-methoxyphenethyl)-21-methyl-5,16,20,23-tetraoxo-1,2,4,4a,5,6,7,8,16,17,18,19,20,21,22,23-hexadecahydronaphtho[1,2-p][1,4]oxazino[3,4-f][1]oxa[4,7,10,14]tetraazacycloheptadecine-18-carboxamide] | 216 nM | 249%
6 | CC(C)C[C@H]1C(=O)N(C)CC(=O)N[C@H](Cc2ccccc2)COc2cc3c(cc2C(=O)N[C@H](C(=O)NCCc2ccc4c(c2)OCO4)CC(=O)N1C)OCO3 [Example 223, (7R,13S,17S)-N-(2-(benzo[d][1,3]dioxol-5-yl)ethyl)-7-benzyl-13-isobutyl-11,14-dimethyl-9,12,15,19-tetraoxo-6,7,8,9,10,11,12,13,14,15,16,17,18,19-tetradecahydro-[1,3]dioxolo[4′,5′:4,5]benzo[1,2-p][1]oxa[4,7,10,14]tetraazacycloheptadecine-17-carboxamide] | 388 nM | 141%
7 | COc1cccc(CCNC(=O)[C@@H]2CC(=O)N(C)[C@@H](CC(C)C)C(=O)N(C)CC(=O)N[C@H](Cc3ccccc3)COc3cc4c(cc3C(=O)N2)OCO4)c1 [Example 224, (7R,13S,17S)-7-benzyl-13-isobutyl-N-(3-methoxyphenethyl)-11,14-dimethyl-9,12,15,19-tetraoxo-6,7,8,9,10,11,12,13,14,15,16,17,18,19-tetradecahydro-[1,3]dioxolo[4′,5′:4,5]benzo[1,2-p][1]oxa[4,7,10,14]tetraazacycloheptadecine-17-carboxamide] | 340 nM | 144%
8 | CCOc1cccc(CCNC(=O)[C@@H]2CC(=O)N(C)[C@@H](CC(C)C)C(=O)N(C)CC(=O)N[C@H](Cc3ccccc3)COc3cc4c(cc3C(=O)N2)OCO4)c1 [Example 225, (7R,13S,17S)-7-benzyl-N-(3-ethoxyphenethyl)-13-isobutyl-11,14-dimethyl-9,12,15,19-tetraoxo-6,7,8,9,10,11,12,13,14,15,16,17,18,19-tetradecahydro-[1,3]dioxolo[4′,5′:4,5]benzo[1,2-p][1]oxa[4,7,10,14]tetraazacycloheptadecine-17-carboxamide] | 191 nM | 110%
9 | CC(C)C[C@H]1C(=O)N(C)CC(=O)N[C@H](Cc2ccccc2)COc2cc3c(cc2C(=O)N[C@H](C(=O)NCCc2ccc4c(c2)OCCO4)CC(=O)N1C)OCO3 [Example 226, (7R,13S,17S)-7-benzyl-N-(2-(2,3-dihydrobenzo[b][1,4]dioxin-6-yl)ethyl)-13-isobutyl-11,14-dimethyl-9,12,15,19-tetraoxo-6,7,8,9,10,11,12,13,14,15,16,17,18,19-tetradecahydro-[1,3]dioxolo[4′,5′:4,5]benzo[1,2-p][1]oxa[4,7,10,14]tetraazacycloheptadecine-17-carboxamide] | 520 nM | 213%
10 | CCc1ccc(CCNC(=O)[C@@H]2CC(=O)N(C)[C@@H](CC(C)C)C(=O)N(C)CC(=O)N[C@H](Cc3ccccc3)COc3cc4c(cc3C(=O)N2)OCO4)cc1 [Example 227, (7R,13S,17S)-7-benzyl-N-(4-ethylphenethyl)-13-isobutyl-11,14-dimethyl-9,12,15,19-tetraoxo-6,7,8,9,10,11,12,13,14,15,16,17,18,19-tetradecahydro-[1,3]dioxolo[4′,5′:4,5]benzo[1,2-p][1]oxa[4,7,10,14]tetraazacycloheptadecine-17-carboxamide] | 290 nM | 103%
11 | COc1ccc2c(c1)C(=O)N[C@H](C(=O)NCCc1ccc3c(c1)OCO3)CC(=O)N(C)[C@@H](CC(C)C)C(=O)N(C)CC(=O)N[C@H](Cc1ccccc1)CO2 [Example 228, (3R,9S,13S)-N-(2-(benzo[d][1,3]dioxol-5-yl)ethyl)-3-benzyl-9-isobutyl-17-methoxy-7,10-dimethyl-5,8,11,15-tetraoxo-2,3,4,5,6,7,8,9,10,11,12,13,14,15-tetradecahydrobenzo[p][1]oxa[4,7,10,14]tetraazacycloheptadecine-13-carboxamide] | 460 nM | 190%
12 | Cc1ccc2c(c1)C(=O)N[C@H](C(=O)NCCc1ccc3c(c1)OCO3)CC(=O)N(C)[C@@H](CC(C)C)C(=O)N(C)CC(=O)N[C@H](Cc1ccccc1)CO2 [Example 229, (3R,9S,13S)-N-(2-(benzo[d][1,3]dioxol-5-yl)ethyl)-3-benzyl-9-isobutyl-7,10,17-trimethyl-5,8,11,15-tetraoxo-2,3,4,5,6,7,8,9,10,11,12,13,14,15-tetradecahydrobenzo[p][1]oxa[4,7,10,14]tetraazacycloheptadecine-13-carboxamide] | 279 nM | 117%
13 | COc1cccc(CCNC(=O)[C@@H]2CC(=O)N(C)[C@@H](CC(C)C)C(=O)N(C)CC(=O)N[C@H](Cc3ccccc3)COc3ccc(C)cc3C(=O)N2)c1 [Example 230, (3R,9S,13S)-3-benzyl-9-isobutyl-N-(3-methoxyphenethyl)-7,10,17-trimethyl-5,8,11,15-tetraoxo-2,3,4,5,6,7,8,9,10,11,12,13,14,15-tetradecahydrobenzo[p][1]oxa[4,7,10,14]tetraazacycloheptadecine-13-carboxamide] | 482 nM | 103%
14 | COc1cccc(CCNC(=O)[C@@H]2CC(=O)N(C)[C@@H](CC(C)C)C(=O)N(C)CC(=O)N[C@H](Cc3ccccc3)COc3ccc(OC)cc3C(=O)N2)c1 [Example 231, (3R,9S,13S)-3-benzyl-9-isobutyl-17-methoxy-N-(3-methoxyphenethyl)-7,10-dimethyl-5,8,11,15-tetraoxo-2,3,4,5,6,7,8,9,10,11,12,13,14,15-tetradecahydrobenzo[p][1]oxa[4,7,10,14]tetraazacycloheptadecine-13-carboxamide] | 592 nM | 173%
15 | COc1cccc(CCNC(=O)[C@@H]2CC(=O)N(C)[C@@H](CC(C)C)C(=O)N(C)CC(=O)N[C@H](Cc3ccccc3)COc3cc(OC)ccc3C(=O)N2)c1 [Example 232, (3R,9S,13S)-3-benzyl-9-isobutyl-18-methoxy-N-(3-methoxyphenethyl)-7,10-dimethyl-5,8,11,15-tetraoxo-2,3,4,5,6,7,8,9,10,11,12,13,14,15-tetradecahydrobenzo[p][1]oxa[4,7,10,14]tetraazacycloheptadecine-13-carboxamide] | 526 nM | 105%
16 | COc1cccc(CCNC(=O)[C@@H]2CC(=O)N(C)[C@@H](CC(C)C)C(=O)N(C)CC(=O)N[C@H](Cc3ccccc3)COc3cc(C)ccc3C(=O)N2)c1 [Example 233, (3R,9S,13S)-3-benzyl-9-isobutyl-N-(3-methoxyphenethyl)-7,10,18-trimethyl-5,8,11,15-tetraoxo-2,3,4,5,6,7,8,9,10,11,12,13,14,15-tetradecahydrobenzo[p][1]oxa[4,7,10,14]tetraazacycloheptadecine-13-carboxamide] | 610 nM | 92%
17 | CC(C)C[C@H]1C(=O)N(C)CC(=O)N[C@H](Cc2ccccc2)COc2ccc(F)cc2C(=O)N[C@H](C(=O)NCCc2ccc3c(c2)OCO3)CC(=O)N1C [Example 234, (3R,9S,13S)-N-(2-(benzo[d][1,3]dioxol-5-yl)ethyl)-3-benzyl-17-fluoro-9-isobutyl-7,10-dimethyl-5,8,11,15-tetraoxo-2,3,4,5,6,7,8,9,10,11,12,13,14,15-tetradecahydrobenzo[p][1]oxa[4,7,10,14]tetraazacycloheptadecine-13-carboxamide] | 471 nM | 110%
